Experimental data from US11083725B2 (priority 2014, dated 2021).

Tested on: NHBE cells
Test: Biolog metabolic array: substrate use by NHBE cells with or without CA09 infection
Format: cell-based, human
Details: for Substrate use, 590 nm absorbance normalized to zero hour, 1 hr: Biolog PMM2, 1 hr; for Substrate use, 590 nm absorbance normalized to zero hour, 5 hr: Biolog PMM2, 5 hr; for Substrate use, 590 nm absorbance normalized to zero hour, 7 hr: Biolog PMM2, 7 hr
[1] = Control (uninfected) NHBE cells
[2] = Virus (CA09-infected, MOI 1) NHBE cells
[3] = Virus: CA09-infected NHBE cells, MOI 1, Biolog PMM2
[4] = Virus (CA09, MOI 1) infected NHBE cells

CC[C@H](O)C(=O)O (racemic) [D,L-a-Hydroxy-Butyric Acid]
590 nm absorbance normalized to zero hour (substrate use), 0 hr [1]: 1.00
590 nm absorbance normalized to zero hour (substrate use), 1 hr [1]: 0.92
590 nm absorbance normalized to zero hour (substrate use), 2 hr [1]: 1.05
590 nm absorbance normalized to zero hour (substrate use), 3 hr [1]: 0.99
590 nm absorbance normalized to zero hour (substrate use), 4 hr [1]: 1.01
590 nm absorbance normalized to zero hour (substrate use), 6 hr [1]: 0.56
590 nm absorbance normalized to zero hour (substrate use), 8 hr [1]: 0.72
590 nm absorbance normalized to zero hour (substrate use), 9 hr [1]: 1.79
590 nm absorbance normalized to zero hour (substrate use), 10 hr [1]: 0.74
590 nm absorbance normalized to zero hour (substrate use), 11 hr [1]: 2.19
Substrate use, 590 nm absorbance normalized to zero hour, 0 hr (Control (uninfected) NHBE cells, Biolog PMM2, 0 hr): 1.00
Substrate use, 590 nm absorbance normalized to zero hour, 1 hr [1]: 0.92
Substrate use, 590 nm absorbance normalized to zero hour, 5 hr [1]: 1.18
Substrate use, 590 nm absorbance normalized to zero hour, 7 hr [1]: 1.41
590 nm absorbance normalized to zero hour (substrate use), 0 hr [2]: 1.00
590 nm absorbance normalized to zero hour (substrate use), 1 hr [2]: 1.29
590 nm absorbance normalized to zero hour (substrate use), 2 hr [2]: 1.58
590 nm absorbance normalized to zero hour (substrate use), 3 hr [2]: 1.74
590 nm absorbance normalized to zero hour (substrate use), 4 hr [2]: 1.84
590 nm absorbance normalized to zero hour (substrate use), 5 hr [2]: 2.00
590 nm absorbance normalized to zero hour (substrate use), 6 hr [2]: 2.10
590 nm absorbance normalized to zero hour (substrate use), 7 hr [2]: 2.18
590 nm absorbance normalized to zero hour (substrate use), 8 hr [2]: 2.26
590 nm absorbance normalized to zero hour (substrate use), 9 hr [2]: 2.35
590 nm absorbance normalized to zero hour (substrate use), 10 hr [2]: 2.39
590 nm absorbance normalized to zero hour (substrate use), 11 hr [2]: 2.21
590 nm absorbance normalized to zero hour (substrate use), 0 hr [3]: 1.00
590 nm absorbance normalized to zero hour (substrate use), 1 hr [3]: 1.29
590 nm absorbance normalized to zero hour (substrate use), 2 hr [3]: 1.58
590 nm absorbance normalized to zero hour (substrate use), 3 hr [3]: 1.74
590 nm absorbance normalized to zero hour (substrate use), 4 hr [3]: 1.84
590 nm absorbance normalized to zero hour (substrate use), 5 hr [3]: 2.00
590 nm absorbance normalized to zero hour (substrate use), 6 hr [3]: 2.10
590 nm absorbance normalized to zero hour (substrate use), 7 hr [3]: 2.18
590 nm absorbance normalized to zero hour (substrate use), 8 hr [3]: 2.26
590 nm absorbance normalized to zero hour (substrate use), 9 hr [3]: 2.35
590 nm absorbance normalized to zero hour (substrate use), 10 hr [3]: 2.39
590 nm absorbance normalized to zero hour (substrate use), 11 hr [3]: 2.21

O=C(O)CC(O)(CC(=O)O)C(=O)O [Citric Acid]
590 nm absorbance normalized to zero hour (substrate use), 1 hr [1]: 1.40
590 nm absorbance normalized to zero hour (substrate use), 2 hr [1]: 1.41
590 nm absorbance normalized to zero hour (substrate use), 3 hr [1]: 1.16
590 nm absorbance normalized to zero hour (substrate use), 4 hr [1]: 1.15
590 nm absorbance normalized to zero hour (substrate use), 6 hr [1]: 1.07
590 nm absorbance normalized to zero hour (substrate use), 8 hr [1]: 1.05
590 nm absorbance normalized to zero hour (substrate use), 9 hr [1]: 1.05
590 nm absorbance normalized to zero hour (substrate use), 10 hr [1]: 1.05
590 nm absorbance normalized to zero hour (substrate use), 11 hr [1]: 1.04
Substrate use, 590 nm absorbance normalized to zero hour, 1 hr [1]: 1.40
Substrate use, 590 nm absorbance normalized to zero hour, 5 hr [1]: 1.22
Substrate use, 590 nm absorbance normalized to zero hour, 7 hr [1]: 1.04
590 nm absorbance normalized to zero hour (substrate use), 1 hr [2]: 1.54
590 nm absorbance normalized to zero hour (substrate use), 2 hr [2]: 1.94
590 nm absorbance normalized to zero hour (substrate use), 3 hr [2]: 2.21
590 nm absorbance normalized to zero hour (substrate use), 4 hr [2]: 2.31
590 nm absorbance normalized to zero hour (substrate use), 5 hr [2]: 2.64
590 nm absorbance normalized to zero hour (substrate use), 6 hr [2]: 2.74
590 nm absorbance normalized to zero hour (substrate use), 7 hr [2]: 2.85
590 nm absorbance normalized to zero hour (substrate use), 8 hr [2]: 2.95
590 nm absorbance normalized to zero hour (substrate use), 9 hr [2]: 3.10
590 nm absorbance normalized to zero hour (substrate use), 10 hr [2]: 2.94
590 nm absorbance normalized to zero hour (substrate use), 11 hr [2]: 2.81
590 nm absorbance normalized to zero hour (substrate use), 1 hr [3]: 1.54
590 nm absorbance normalized to zero hour (substrate use), 2 hr [3]: 1.94
590 nm absorbance normalized to zero hour (substrate use), 3 hr [3]: 2.21
590 nm absorbance normalized to zero hour (substrate use), 4 hr [3]: 2.31
590 nm absorbance normalized to zero hour (substrate use), 5 hr [3]: 2.64
590 nm absorbance normalized to zero hour (substrate use), 6 hr [3]: 2.74
590 nm absorbance normalized to zero hour (substrate use), 7 hr [3]: 2.85
590 nm absorbance normalized to zero hour (substrate use), 8 hr [3]: 2.95
590 nm absorbance normalized to zero hour (substrate use), 9 hr [3]: 3.10
590 nm absorbance normalized to zero hour (substrate use), 10 hr [3]: 2.94
590 nm absorbance normalized to zero hour (substrate use), 11 hr [3]: 2.81

OC[C@@H](O)[C@@H](O[C@@H]1O[C@H](CO)[C@H](O)[C@H](O)[C@H]1O)[C@H](O)[C@@H](O)CO [Lactitol]
590 nm absorbance normalized to zero hour (substrate use), 1 hr [1]: 0.19
590 nm absorbance normalized to zero hour (substrate use), 2 hr [1]: 0.26
590 nm absorbance normalized to zero hour (substrate use), 3 hr [1]: 0.31
590 nm absorbance normalized to zero hour (substrate use), 4 hr [1]: 0.33
590 nm absorbance normalized to zero hour (substrate use), 6 hr [1]: 0.40
590 nm absorbance normalized to zero hour (substrate use), 8 hr [1]: 0.47
590 nm absorbance normalized to zero hour (substrate use), 9 hr [1]: 0.50
590 nm absorbance normalized to zero hour (substrate use), 10 hr [1]: 0.55
590 nm absorbance normalized to zero hour (substrate use), 11 hr [1]: 0.62
Substrate use, 590 nm absorbance normalized to zero hour, 1 hr [1]: 0.19
Substrate use, 590 nm absorbance normalized to zero hour, 5 hr [1]: 0.39
Substrate use, 590 nm absorbance normalized to zero hour, 7 hr [1]: 0.44
Substrate use, 590 nm absorbance normalized to zero hour, 1 hr [4]: 1.61
Substrate use, 590 nm absorbance normalized to zero hour, 5 hr [4]: 3.16
Substrate use, 590 nm absorbance normalized to zero hour, 7 hr [4]: 3.55
590 nm absorbance normalized to zero hour (substrate use), 1 hr [2]: 1.61
590 nm absorbance normalized to zero hour (substrate use), 2 hr [2]: 2.20
590 nm absorbance normalized to zero hour (substrate use), 3 hr [2]: 2.54
590 nm absorbance normalized to zero hour (substrate use), 4 hr [2]: 2.73
590 nm absorbance normalized to zero hour (substrate use), 6 hr [2]: 3.38
590 nm absorbance normalized to zero hour (substrate use), 8 hr [2]: 3.76
590 nm absorbance normalized to zero hour (substrate use), 9 hr [2]: 4.11
590 nm absorbance normalized to zero hour (substrate use), 10 hr [2]: 4.31
590 nm absorbance normalized to zero hour (substrate use), 11 hr [2]: 4.66
